Reference: PubChem BioAssay AID1259407 (Chemical Carcinogenesis Research Information System (CCRIS), 2018)
The source made the active and inactive calls. How the calls were made is not given here.

Tested on: CCRIS mutagenicity, Ames/micronucleus/aberration tests
Experiment: CCRIS mutagenicity studies
Conditions: Test System: Mouse lymphoma, Strain/Indicator: L5178Y (tk+/tk-), Method: Suspension/plate
Description: The CCRIS database contains chemical records with carcinogenicity, mutagenicity, tumor promotion, and tumor inhibition test results. It was developed by the National Cancer Institute (NCI). Data are derived from studies cited in primary journals, current awareness tools, NCI reports, and other sources. Test results have been reviewed by experts in carcinogenesis and mutagenesis.
CCRIS provides historical information from the years 1985 - 2011. It is no longer updated.
This is an archive assay for CCRIS mutagenicity studies.

## O=C(O)CN(CCN(CC(=O)O)Cc1ccccc1O)Cc1ccccc1O
Metabolic Activation: None
  mutagenic call: active; positive
Metabolic Activation: Rat, Liver, S-9, Aroclor 1254
  mutagenic call: active; positive
